In patent US20230133958A1, “COMPOUNDS USEFUL IN MODULATING EGFR AND PI3K” (Mekanistic Therapeutics LLC, priority 2021, published 2023):

Test: Metabolic stability in mouse liver microsomes
Assay type: in vitro ADME
Conditions: Mouse Liver Microsome (MLM)
Procedure: Working solution: 5 µL of compound and control stock solution (10 mM in dimethyl sulfoxide (DMSO)) were diluted with 495 µL of acetonitrile (ACN) (intermediate solution concentration: 100 µM, 99% ACN)
NADPH Cofactor Preparation: NADPH powder: β-Nicotinamide adenine dinucleotide phosphate reduced form, tetrasodium salt; NADPH 4 Na. The appropriate amount of NADPH powder was weighed and diluted into a 10 mM MgCl2 solution (working solution concentration: 10 unit/mL; final concentration in reaction system: 1 unit/mL)
Liver Microsomes Preparation: The appropriate concentrations of microsome working solutions were prepared in 100 mM potassium phosphate buffer. Cold (4° C.) acetonitrile (ACN) containing 200 ng/mL tolbutamide and 200 ng/mL labetalol as internal standards (IS) was used as the stop solution
Assay Procedure: Pre-warm empty ‘Incubation’ plates T60 and NCF60 for 10 minutes. Dilute liver microsomes to 0.56 mg/mL in 100 mM phosphate buffer. Transfer 445 µL microsome working solutions (0.56 mg/mL) into pre-warmed ‘Incubation’ plates T60 and NCF60, Then pre-incubate ‘Incubation’ plates T60 and NCF60 for 10 min at 37° C. with constant shaking. […]
The biological stability of the compounds of the invention can be measured by determining its ½ life in the presence microsomes. […]

For `CS(=O)(=O)Nc1cc(-c2ccc3ncnc(Nc4cccc(Cl)c4F)c3c2)cnc1Cl` [Compound 6, N-[2-chloro-5-[4-(3-chloro-2-fluoro-anilino)quinazolin-6-yl]-3-pyridyl] methanesulfonamide], the half-life at 1 µM was 10 to 100 min.
